Assay results taken from patent US4116972A, “Anti-inflammatory 1-oxo-isoindoline derivatives and processes for their preparation” (Fuji Chemical Industry Company Limited, priority 1975, dated 1978).
Like-named read-outs stand apart in the source and are kept apart here.

Key:
[1] = system: male rats of the Wistar strain; experiment: Analgesic effect, Pressure Method; type: in vivo, rat (male
Method: (§1) The rats were tested in groups of six. Only those animals having a normal pain threshold in both hind legs were selected for the tests. The compound to be tested was suspended in 0.3% carboxymethylcellulose aqueous solution and administered orally. […] The analgesic activity was tested by the Pressure Method [Brit. J. […] Int.

[2] = system: male rats of the Wistar strain; experiment: Analgesic effect, Acetic Acid Raising Method; type: in vivo, rat (male; set-up: unit not given here
[3] = system: male rats of the Wistar strain; experiment: Analgesic effect, Randall-Selitto Method; type: in vivo, rat (male
Method: as §1

[4] = system: carrageenin-induced oedema; experiment: Carrageenin-oedema test in rats (anti-inflammatory activity); type: in vivo, rat (male, Wistar strain)
Method: Compound 1 was administered through a stomach tube, in suspension in a 0.3% by weight carboxymethylcellulose aqueous solution, in an amount of 6.25 mg/kg or 12.5 mg/kg to male rats of the Wistar strain having a body weight of 120-130 g. After 1 hour, inflammation was induced by injecting subcutaneously […] of a 1% carrageenin suspension into the plantar tissue of the right hind paw of each rat. Paw oedema was measured volumetrically,immediately before and also every hour for 5 hours after the carrageenin injection, and the response, measured as the oedema effect (E) was calculated by the following equation: […]
where Vo and VT represents the paw volumes O and T after the carrageenin injection, respectively.
The tests were also carried out on a control group of rats to which no anti-inflammatory agent had been administered. Each test was carried out on a group of six rats.
The inhibitory effect was measured by the inhibitory ratio (IR), calculated from the following equation:
IR = […] 100 (%)
where Ec represents the oedema ratio of the control rats and E represents the oedema ratio of the rats treated with Compound 1.
The inhibitory ratio was determined on administration of various amounts of Compound 1 and the results obtained 3 hours after carrageenin injection are shown in Table 1.

Acute toxicity (oral) = type: in vivo; conditions: in vivo; for LD50 at 168 h: rat, po
Method: (§2) Compound 1 was administered in the amounts shown in Table 3 to male rats of the Wistar strain having a body weight of 110-130 g. The rats were tested in groups of eight and similar tests were applied to similar groups of female rats. The compound to be tested was suspended in a 0.3% aqueous solution of carboxymethylcellulose and was administered through a stomach tube. The lethal dose 50% (LD50) and credibility limit 95% (CL) were calculated from the lethal effect by the method of Litchield and Wilcoxon [J. Pharmac. Exp. Ther., 96, 99 (1949)]; the lethal effect was expressed as X/n, in which X is the number of animals which were dead one week after administration and n is the total number of animals used in the test.

[5] = system: rats of the Wistar strain; experiment: Acute toxicity (oral); type: in vivo; conditions: one week after administration
Method: as §2

stomach [6] = experiment: Effect on gastric ulcer, first method (single oral administration); type: in vivo, rat (male, Donryu strain); conditions: 18 hours
Method: (§3) Each compound to be tested was suspended in a 0.3% solution of carboxymethylcellulose in physiological saline and administered in an amount of 1 ml per 200 g body weight of the rat. Determination of the occurrence of gastric inflammation and ulceration was calculated by adding the sizes of ulcerated regions (mm^2) of each rat observed within a lattice (width 1 cm, divided into 10 equal parts) of a stereomicroscope. The determination was made on the stomach removed after sacrifice of the animal and then fixed for 10 minutes with 1% formalin.
In a first method, the compound to be tested was administered orally after 24 hours starvation and then, after a further 18 hours, the animal was sacrificed, under ether anaesthesia.

stomach [7] = experiment: Effect on gastric ulcer, second method (repeated oral administration); type: in vivo, rat (male, Donryu strain)
Method: Male rats of the Donryu strain having a body weight of 150-200 g were starved for 24 hours and the effects of administration of Compound 1 and its aluminium salt (Compound 7) on the occurrence of gastric ulcers were determined, as were the effects of other known anti-inflammatory agents.
as §3
As a second method, first oral administration was effected after 24 hours starvation and a second oral administration was effected after a further 12 hours starvation. Each animal was then sacrificed, under ether anaesthesia, 6 hours after the second administration. This method was employed to observe the effect after repeated administration of the compounds of the invention.

[8] = system: male rats of the Wistar strain; experiment: Analgesic effect, overall (Pressure, Acetic Acid Raising and Randall-Selitto methods); type: in vivo, rat (male; conditions: oral
Method: as §1

Solubility = type: physicochemical
[9] = 50 mg/kg P.O., Compound 7 marked ** (significant difference vs phenylbutazone at p = 0.01)
[10] = 50 × 2 mg/kg P.O., vs phenylbutazone: Compound 1 * (p = 0.01), Compound 7 ** (p = 0.1), 2 mg/kg
[11] = 200 × 2 mg/kg P.O., Aspirin marked * (significant difference vs phenylbutazone at p = 0.01)

## CC(C(=O)O)c1cccc(C(=O)c2ccccc2)c1 (centres unmarked) [Ketoprofen]
[1]; 100 mg/kg orally
  Pressure method, Ratio (average): 1.40
[2]; 100 mg/kg orally
  Acetic Acid Raising method, a (graded response): 53.8
  Acetic Acid Raising method, b (all or none response): 60
[3]; 10 mg/kg orally
  Randall-Selitto method, Analgesic index, Inflamed foot: 1.20
  Randall-Selitto method, Analgesic index, Normal foot: 1.03

## CC(C(=O)O)c1ccc(N2CC3=C(CC=CC3)C2=O)cc1 (stereo not drawn) [Compound 1, α-[4-(1-oxo-4,7-dihydro-2-isoindolinyl)phenyl]propionic acid]
[4]; 5 mg/kg oral, 3 hours after carrageenin injection
  Inhibitory ratio: 33.2%
[4]; 10 mg/kg oral, 3 hours after carrageenin injection
  Inhibitory ratio: 57.1%
[4]; 20 mg/kg oral, 3 hours after carrageenin injection
  Inhibitory ratio: 64.7%
[4]; 40 mg/kg oral, 3 hours after carrageenin injection
  Inhibitory ratio: 69.0%
[4]; 5-40 mg/kg, 3 hours after carrageenin injection
  dose dependence of inhibitory effect (in words): increased in rough proportion to the amount of Compound 1 administered
[4]; 6.25 or 12.5 mg/kg oral
  inhibitory effect over the first 5 hours (in words): strong inhibitory effect appeared over the first 5 hours
  onset of inhibitory effect (in words): clearly appeared at the end of the first hour after carrageenin injection
[4]; 3 h, oral, rat carrageenin oedema, range printed 4.0-30.9 mg/kg, read-out: ED50 (effective dose 50%)
  ED50: 11.1 mg/kg
[4]; rat hind paw oedema
  inhibitory effect on carrageenin-induced oedema (in words): particularly strong inhibitory effect
[1]; 150 mg/kg orally
  Pressure method, Ratio (average): 1.36
[2]; 100 mg/kg orally
  Acetic Acid Raising method, a (graded response): 21.0
  Acetic Acid Raising method, b (all or none response): 7
[3]; 10 mg/kg orally
  Randall-Selitto method, Analgesic index, Inflamed foot: 1.21
  Randall-Selitto method, Analgesic index, Normal foot: 1.04
Acute toxicity (oral); oral LD50 male rat / ED50 carrageenin oedema rat, read-out: therapeutic index (LD50/ED50)
  selectivity ratio: 29.6
Acute toxicity (oral); female rats, 95% CL (250-476), read-out: LD50, Female
  LD50 at 168 h: 345 mg/kg
Acute toxicity (oral); male rats, 95% CL (238-453), read-out: LD50, Male
  LD50 at 168 h: 328 mg/kg
[5]; 180 mg/kg oral
  Lethal effect, Female (dead/total): 1/8
  Lethal effect, Male (dead/total): 0/8
[5]; 234 mg/kg oral
  Lethal effect, Female (dead/total): 2/8
  Lethal effect, Male (dead/total): 2/8
[5]; 304 mg/kg oral
  Lethal effect, Female (dead/total): 3/8
  Lethal effect, Male (dead/total): 4/8
[5]; 395 mg/kg oral
  Lethal effect, Female (dead/total): 5/8
  Lethal effect, Male (dead/total): 5/8
[5]; 514 mg/kg oral
  Lethal effect, Female (dead/total): 6/8
  Lethal effect, Male (dead/total): 6/8
[5]; 668 mg/kg oral
  Lethal effect, Female (dead/total): 8/8
  Lethal effect, Male (dead/total): 8/8
Stomach [6]; [9]
  Size of ulcerated region of stomach: 4.1 ± 0.46 mm^2
Stomach [7]; [10]
  Size of ulcerated region of stomach: 11.3 ± 2.00 mm^2
[8]
  analgesic effect (in words): weak

## CC(=O)Oc1ccccc1C(=O)O [Aspirin]
Stomach [6]; 200 mg/kg P.O.
  Size of ulcerated region of stomach: 9.7 ± 1.36 mm^2
Stomach [7]; [11]
  Size of ulcerated region of stomach: 27.2 ± 3.01 mm^2

## CC(C(=O)O)c1ccc(N2CC3=C(CC=CC3)C2=O)cc1 (stereo not drawn) [Compound 7, Aluminium α-[4-(1-oxo-4,7-dihydro-2-isoindolinyl)phenyl]propionate]
Stomach [6]; [9]
  Size of ulcerated region of stomach: 2.4 ± 0.49 mm^2
Stomach [7]; [10]
  Size of ulcerated region of stomach: 10.3 ± 1.00 mm^2
Solubility; dimethyl sulphoxide
  solubility in dimethyl sulphoxide: slightly soluble
Solubility; most organic solvents
  solubility in most organic solvents: sparingly soluble

## Cc1c(N(C)C)c(=O)n(-c2ccccc2)n1C [Aminopyrine]
[1]; 150 mg/kg orally
  Pressure method, Ratio (average): 2.02

## CC(C)Cc1ccc(C(C)C(=O)O)cc1 (centres unmarked) [Ibuprofen]
[2]; 200 mg/kg orally
  Acetic Acid Raising method, a (graded response): 21.9
  Acetic Acid Raising method, b (all or none response): 20
[3]; 100 mg/kg orally
  Randall-Selitto method, Analgesic index, Inflamed foot: 1.20
  Randall-Selitto method, Analgesic index, Normal foot: 1.05

## COc1ccc2c(c1)c(CC(=O)O)c(C)n2C(=O)c1ccc(Cl)cc1 [Indomethacin]
Stomach [6]; 20 mg/kg P.O.
  Size of ulcerated region of stomach: 8.0 ± 1.22 mm^2
Stomach [7]; 20 × 2 mg/kg P.O.
  Size of ulcerated region of stomach: 15.3 ± 1.20 mm^2

## Cc1cccc(Nc2ccccc2C(=O)O)c1C [Mefenamic acid]
[2]; 150 mg/kg orally
  Acetic Acid Raising method, a (graded response): 45.4
  Acetic Acid Raising method, b (all or none response): 60

## CCCCC1C(=O)N(c2ccccc2)N(c2ccccc2)C1=O [Phenylbutazone]
[2]; 200 mg/kg orally
  Acetic Acid Raising method, a (graded response): 25.8
  Acetic Acid Raising method, b (all or none response): 20
Stomach [6]; 200 mg/kg P.O.
  Size of ulcerated region of stomach: 6.6 ± 1.31 mm^2
Stomach [7]; [11]
  Size of ulcerated region of stomach: 17.2 ± 1.93 mm^2
